Consider 49 compounds from publication PMC7489219 (Molecular Brain, 2020).

Test [1] concerns the target T1, GluN2B (Homo sapiens, UniProt Q05586+Q13224).
T1 construct: gene GRIN2B; with GluN1 (Q05586)
The experiment in a line: automated patch clamp of HEK293 cells stably expressing human GluN1/GluN2B. It is filed as cell-based.

Test [2] concerns the target T2, GluN2A (Homo sapiens, UniProt Q05586+Q12879).
T2 construct: gene GRIN2A

In test [3] the test system is T3, primary mouse cortical neurons.
T3 construct: primary cortical neurons, DIV 10
The experiment in a line: cells. More on the design: Protection from NMDA-induced (30 uM, 10 min) neuronal death; Hoechst nuclear morphology by automated microscopy. To be noted: Cortical neurone, 20 h, read-out: % inhibition, inhibition of NMDA-induced cell death (protection score), 30 min pre-treatment. The method, boiled down:
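On DIV 10, primary mouse cortical neurons were given compound at 10 μM for 30 min at 37 °C, then 30 μM NMDA for 10 min, washed, and kept 20 h with compound. Dead cells were scored by nuclear morphology, and % protection was derived from survival relative to vehicle + NMDA and untreated controls.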

Counter-ions that a name gives are not always drawn.

T1 sequence (Q13224 27-1484, other chains not shown): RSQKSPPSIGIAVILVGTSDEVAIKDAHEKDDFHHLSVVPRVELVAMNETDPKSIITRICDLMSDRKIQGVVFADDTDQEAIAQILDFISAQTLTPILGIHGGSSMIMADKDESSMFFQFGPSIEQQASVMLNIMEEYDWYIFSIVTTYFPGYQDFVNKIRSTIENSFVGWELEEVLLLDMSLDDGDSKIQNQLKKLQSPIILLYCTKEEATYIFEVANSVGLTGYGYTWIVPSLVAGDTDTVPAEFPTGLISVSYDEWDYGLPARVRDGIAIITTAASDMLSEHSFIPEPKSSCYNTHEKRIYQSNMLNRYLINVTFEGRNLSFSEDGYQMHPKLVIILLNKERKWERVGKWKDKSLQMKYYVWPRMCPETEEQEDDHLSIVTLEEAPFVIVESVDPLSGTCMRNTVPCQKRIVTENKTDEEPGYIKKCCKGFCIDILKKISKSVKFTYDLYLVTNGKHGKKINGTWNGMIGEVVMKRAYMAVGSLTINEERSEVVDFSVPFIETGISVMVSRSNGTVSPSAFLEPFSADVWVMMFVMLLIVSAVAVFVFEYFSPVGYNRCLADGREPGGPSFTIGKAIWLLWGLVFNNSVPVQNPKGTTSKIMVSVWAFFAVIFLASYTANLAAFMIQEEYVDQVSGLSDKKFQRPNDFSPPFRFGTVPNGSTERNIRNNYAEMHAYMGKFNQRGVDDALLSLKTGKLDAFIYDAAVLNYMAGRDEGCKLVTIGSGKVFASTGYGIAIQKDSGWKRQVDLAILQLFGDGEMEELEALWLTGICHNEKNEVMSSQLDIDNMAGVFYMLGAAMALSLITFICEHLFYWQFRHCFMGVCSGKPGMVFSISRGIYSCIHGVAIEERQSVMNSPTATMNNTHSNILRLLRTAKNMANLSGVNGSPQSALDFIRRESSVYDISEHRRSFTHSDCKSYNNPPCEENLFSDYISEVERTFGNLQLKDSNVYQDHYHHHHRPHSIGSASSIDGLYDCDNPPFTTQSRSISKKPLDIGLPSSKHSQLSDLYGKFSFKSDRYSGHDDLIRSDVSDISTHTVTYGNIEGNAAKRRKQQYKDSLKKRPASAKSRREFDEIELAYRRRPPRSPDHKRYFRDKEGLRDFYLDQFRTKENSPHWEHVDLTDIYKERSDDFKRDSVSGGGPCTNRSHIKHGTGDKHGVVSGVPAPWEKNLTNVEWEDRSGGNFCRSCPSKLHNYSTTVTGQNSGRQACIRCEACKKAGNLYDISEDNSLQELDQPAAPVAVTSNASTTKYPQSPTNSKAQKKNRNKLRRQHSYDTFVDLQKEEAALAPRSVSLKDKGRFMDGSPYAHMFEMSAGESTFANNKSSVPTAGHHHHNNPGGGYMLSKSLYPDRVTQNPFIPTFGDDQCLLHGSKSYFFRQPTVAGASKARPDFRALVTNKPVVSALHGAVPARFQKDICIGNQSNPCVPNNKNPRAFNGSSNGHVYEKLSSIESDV
T2 sequence (Q12879 23-1464, other chains not shown): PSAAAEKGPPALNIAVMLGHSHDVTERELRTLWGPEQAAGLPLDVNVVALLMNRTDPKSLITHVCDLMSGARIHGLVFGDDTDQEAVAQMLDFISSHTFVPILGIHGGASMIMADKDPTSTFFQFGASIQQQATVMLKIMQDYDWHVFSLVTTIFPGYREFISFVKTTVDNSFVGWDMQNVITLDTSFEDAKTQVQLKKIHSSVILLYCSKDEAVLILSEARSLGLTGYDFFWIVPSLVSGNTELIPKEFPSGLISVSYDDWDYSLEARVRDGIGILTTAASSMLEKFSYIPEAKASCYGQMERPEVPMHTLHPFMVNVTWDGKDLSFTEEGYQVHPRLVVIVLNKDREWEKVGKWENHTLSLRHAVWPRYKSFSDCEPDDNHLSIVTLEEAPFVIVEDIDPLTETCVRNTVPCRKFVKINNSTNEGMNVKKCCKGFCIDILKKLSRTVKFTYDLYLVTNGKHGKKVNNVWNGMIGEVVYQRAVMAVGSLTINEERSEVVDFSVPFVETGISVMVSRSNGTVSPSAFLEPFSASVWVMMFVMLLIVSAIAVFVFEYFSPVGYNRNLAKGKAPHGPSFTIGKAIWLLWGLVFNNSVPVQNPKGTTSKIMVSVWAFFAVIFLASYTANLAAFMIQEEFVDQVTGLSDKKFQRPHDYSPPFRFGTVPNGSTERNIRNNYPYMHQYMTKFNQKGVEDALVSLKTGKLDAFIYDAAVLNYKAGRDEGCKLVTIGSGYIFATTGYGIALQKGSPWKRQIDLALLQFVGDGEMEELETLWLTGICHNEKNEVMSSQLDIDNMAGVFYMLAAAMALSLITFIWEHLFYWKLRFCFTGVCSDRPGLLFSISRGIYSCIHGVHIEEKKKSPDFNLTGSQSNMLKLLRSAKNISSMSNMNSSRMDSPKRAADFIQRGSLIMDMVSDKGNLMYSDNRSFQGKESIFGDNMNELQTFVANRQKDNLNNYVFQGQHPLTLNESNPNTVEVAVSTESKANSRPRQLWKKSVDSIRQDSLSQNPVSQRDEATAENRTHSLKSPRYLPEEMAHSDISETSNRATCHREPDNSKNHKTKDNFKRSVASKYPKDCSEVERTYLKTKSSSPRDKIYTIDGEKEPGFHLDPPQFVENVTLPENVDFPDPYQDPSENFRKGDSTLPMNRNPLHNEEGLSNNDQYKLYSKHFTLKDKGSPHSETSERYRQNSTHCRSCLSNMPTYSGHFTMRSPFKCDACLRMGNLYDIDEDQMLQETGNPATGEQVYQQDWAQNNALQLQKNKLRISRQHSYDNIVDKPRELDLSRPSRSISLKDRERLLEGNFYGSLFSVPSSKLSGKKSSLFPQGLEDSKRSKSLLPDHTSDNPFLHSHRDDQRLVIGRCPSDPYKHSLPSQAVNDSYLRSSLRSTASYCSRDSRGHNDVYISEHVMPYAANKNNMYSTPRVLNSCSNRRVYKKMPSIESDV

Regarding `N[C@H](CCCP(=O)(O)O)C(=O)O` [D-APV], the IC50 in test [1] amounted to 1140 nM; in test [2], 1480 nM. For the compound `CN1[C@@H]2CC(OC(=O)[C@H](CO)c3ccccc3)C[C@H]1[C@@H]1O[C@@H]12` (some centres unmarked) [Scopolamine hydrobromide], the inhibition at 10 µM in test [3] was -0.0258%. For the compound `CC(=O)O[C@H]1CC[C@@]2(C)C(=CC[C@@H]3[C@@H]2CC[C@]2(C)C(c4cccnc4)=CC[C@@H]32)C1` [Abiraterone Acetate (CB7630)], the inhibition at 10 µM in test [3] was -0.808%. Turning to `O=C1CCC(N2C(=O)c3ccccc3C2=O)C(=O)N1` (centres unmarked) [Thalidomide], the inhibition at 10 µM in test [3] was -3.3%.

In the case of `C[C@@H]1CC[C@H]2[C@@H](C)C(O)O[C@@H]3O[C@@]4(C)CC[C@@H]1[C@]32OO4` (some centres unmarked) [Dihydroartemisinin (DHA)], the inhibition at 10 µM in test [3] was -4.3%. Same read-out and setting: in the case of `COc1c2occc2cc2ccc(=O)oc12` [Methoxsalen (Oxsoralen)] it was -4.76%; in that of `Cc1cn([C@@H]2C[C@@H](O)[C@H](CO)O2)c(=O)[nH]c1=O` [Telbivudine (Sebivo, Tyzeka)], 23.8%; in that of `Cc1ccc(Nc2nccc(N(C)c3ccc4c(C)n(C)nc4c3)n2)cc1S(N)(=O)=O` [Pazopanib HCl], -2.36%.

Take `O=C(/C=C/C=C/c1ccc2c(c1)OCO2)N1CCCCC1` [Piperine (1-Piperoylpiperidine)]: the inhibition at 10 µM in test [3] is -1.51%.

Take `N#CC1(c2ccc(NC(=O)c3cccnc3NCc3ccncc3)cc2)CCCC1` [Apatinib (YN968D1)]: the inhibition at 10 µM in test [3] was -0.459%. Regarding `COC(=O)N[C@H](C(=O)N[C@@H](Cc1ccccc1)[C@@H](O)CN(Cc1ccc(-c2ccccn2)cc1)NC(=O)[C@@H](NC(=O)OC)C(C)(C)C)C(C)(C)C` [Atazanavir sulfate], the inhibition at 10 µM in test [3] was 2.12%.

With `C#C[C@]1(O)CC[C@H]2[C@@H]3CCc4cc(OC)ccc4[C@H]3CC[C@@]21C` [Mestranol], the inhibition at 10 µM in test [3] amounted to 11.8%.

For `C[C@]12CC[C@@H]3c4ccc(O)cc4C[C@@H](CCCCCCCCC[S+]([O-])CCCC(F)(F)C(F)(F)F)[C@H]3[C@@H]1CC[C@@H]2O` (some centres unmarked) [Fulvestrant (Faslodex)], the inhibition at 10 µM in test [3] was -2.64%. `O=C(N[C@H](CO)[C@H](O)c1ccc([N+](=O)[O-])cc1)C(Cl)Cl` [Chloramphenicol (Chloromycetin)]: the inhibition at 10 µM in test [3] was 0.272%. On the same count and under the same terms, in the case of `N[C@@H](Cc1c[nH]c2ccc(O)cc12)C(=O)O` [5-hydroxytryptophan (5-HTP)] it was -0.632%; in that of `CC(C)C[C@H](NC(=O)[C@H](Cc1ccccc1)NC(=O)c1cnccn1)B(O)O` [Bortezomib (Velcade)], -4.79%. The same measure, in the same setting: in the case of `C[C@@H](c1ncncc1F)[C@](O)(Cn1cncn1)c1ccc(F)cc1F` [Voriconazole] it was 17.5%; in that of `CC(=O)O[C@]1(C(C)=O)CC[C@H]2[C@@H]3C=C(C)C4=CC(=O)CC[C@]4(C)[C@H]3CC[C@@]21C` [Megestrol Acetate], -7.04%. As for `COc1cc(C=O)ccc1O` [Vanillin], the inhibition at 10 µM in test [3] is -1.73%.

For the compound `CC(=O)N[C@@H](CS)C(=O)O` [Acetylcysteine], in test [3], the inhibition at 10 µM was found to be 29%. As for `COc1cc2c(cc1OC)C(=O)C(CC1CCN(Cc3ccccc3)CC1)C2` (centres unmarked) [Donepezil HCl (Aricept)], the inhibition at 10 µM in test [3] is -8.98%.

For the compound `CCC[C@@H]1C[C@@H](C(=O)N[C@@H]([C@H]2O[C@H](SC)[C@H](O)[C@@H](O)[C@H]2O)[C@H](C)Cl)N(C)C1` [Clindamycin hydrochloride (Dalacin)], the inhibition at 10 µM in test [3] was found to be 2.41%. Same read-out and setting: in the case of `COc1ccc(-c2ccc3cc(C(=O)O)ccc3c2)cc1[C@]12C[C@H]3C[C@H](C[C@H](C3)C1)C2` [Adapalene] it was 63.6%.

Regarding `CO[C@H]1C[C@@H]2CC[C@@H](C)[C@@](O)(O2)C(=O)C(=O)N2CCCC[C@H]2C(=O)O[C@H]([C@H](C)C[C@@H]2CC[C@@H](OC(=O)C(C)(CO)CO)[C@H](OC)C2)CC(=O)[C@H](C)/C=C(\C)[C@@H](O)[C@@H](OC)C(=O)[C@H](C)C[C@H](C)/C=C/C=C/C=C/1C` [Temsirolimus (Torisel)], in test [3], the inhibition at 10 µM is 1.56%. Regarding `Clc1ccccc1C(c1ccccc1)(c1ccccc1)n1ccnc1` [Clotrimazole (Canesten)], the inhibition at 10 µM in test [3] was -1.47%. Take `C[C@H]1O[C@H](O[C@H]2[C@H](O)[C@@H](O)[C@@H](O[C@@H]([C@H](O)[C@@H](O)C=O)[C@H](O)CO)O[C@@H]2CO)[C@H](O)[C@@H](O)[C@@H]1N[C@H]1C=C(CO)[C@@H](O)[C@H](O)[C@H]1O` [Acarbose]: the inhibition at 10 µM in test [3] was 4.12%. The same measure, in the same setting: in the case of `Cc1nc2n(c(=O)c1CCN1CCC(c3noc4cc(F)ccc34)CC1)CCCC2O` (centres unmarked) [Paliperidone (Invega)] it was -1.54%; in that of `CNC[C@@H](O)c1ccc(O)c(O)c1` [L-Adrenaline (Epinephrine)], 0.37%; in that of `C[C@H](CCC(=O)O)[C@H]1CC[C@H]2[C@@H]3[C@@H](O)C[C@@H]4C[C@H](O)CC[C@]4(C)[C@H]3CC[C@]12C` [Ursodiol (Actigal Urso)], 35.3%. Turning to `Clc1ccc(COC(Cn2ccnc2)c2ccc(Cl)cc2Cl)cc1` (centres unmarked) [Econazole nitrate (Spectazole)], in test [3], the inhibition at 10 µM is -2.25%.

Regarding `N[C@@H](Cc1ccc(O)c(O)c1)C(=O)O` [Levodopa (Sinemet)], the inhibition at 10 µM in test [3] worked out at 0.209%. Still for that read-out and setting: then `CCNC(=O)CCC/C=C\C[C@@H]1[C@@H](/C=C/[C@@H](O)CCc2ccccc2)[C@H](O)C[C@@H]1O` [Bimatoprost], with 9.97%; and `CC(=O)OCC(=O)[C@@]1(O)CC[C@H]2[C@@H]3CCC4=CC(=O)C=C[C@]4(C)[C@H]3[C@@H](O)C[C@@]21C` [Prednisolone acetate (Omnipred)], with -1.13%. `Nc1ncn([C@H]2C[C@H](O)[C@@H](CO)O2)c(=O)n1` [Decitabine]: the inhibition at 10 µM in test [3] was 11.3%. `COC[C@@H](c1ccc(C(F)(F)F)cc1)N1CCN(C2(C)CCN(C(=O)c3c(C)ncnc3C)CC2)C[C@@H]1C` [Vicriviroc Malate]: the inhibition at 10 µM in test [3] is 0.113%. As to `Cc1ccc(-n2[nH]c(C)c(N=Nc3cccc(-c4cccc(C(=O)O)c4)c3O)c2=O)cc1C` [Eltrombopag (SB-497115-GR)], in test [3], the inhibition at 10 µM amounted to 93.9%. As to `NC(=O)c1cnccn1` [Pyrazinamide (Pyrazinoic acid amide)], the inhibition at 10 µM in test [3] worked out at 15.2%. The same measure, in the same setting: in the case of `C=C1[C@H](CO)[C@@H](O)C[C@@H]1n1cnc2c(=O)[nH]c(N)nc21` [Entecavir hydrate] it was 3.22%; in that of `N=c1ccn2c(n1)O[C@H]1[C@H](O)[C@@H](CO)O[C@H]12` [Cyclocytidine HCl], -2.19%; in that of `C[C@@H](O[C@H]1OCCN(Cc2n[nH]c(=O)[nH]2)[C@H]1c1ccc(F)cc1)c1cc(C(F)(F)F)cc(C(F)(F)F)c1` [Aprepitant (MK-0869)], 17.6%. With `Nc1nc2c(ncn2COCCO)c(=O)[nH]1` [Acyclovir (Aciclovir)], the inhibition at 10 µM in test [3] was -1.44%.

Take `COC1=C(OC)C(=O)C(C/C=C(\C)CC/C=C(\C)CC/C=C(\C)CC/C=C(\C)CC/C=C(\C)CC/C=C(\C)CC/C=C(\C)CC/C=C(\C)CC/C=C(\C)CCC=C(C)C)=C(C)C1=O` [Coenzyme Q10(CoQ10)]: the inhibition at 10 µM in test [3] was determined as 9.82%. `Cc1ccc(O)c([C@H](CCN(C(C)C)C(C)C)c2ccccc2)c1` [Tolterodine tartrate (Detrol LA)]: the inhibition at 10 µM in test [3] was -2.31%. On the same count and under the same terms, then `CC(C)[C@]12O[C@H]1[C@@H]1O[C@]13[C@]1(O[C@H]1C[C@H]1C4=C(CC[C@@]13C)C(=O)OC4)[C@@H]2O` [Triptolide], with -1.79%; and `COc1ccc(C(C)=O)c(O)c1` [Paeonol (Peonol)], with -2.06%. Regarding `CC(=O)N1CCN(c2ccc(OC[C@@H]3CO[C@@](Cn4ccnc4)(c4ccc(Cl)cc4Cl)O3)cc2)CC1` (racemic) [Ketoconazole], the inhibition at 10 µM in test [3] was -15.9%. Still for that read-out and setting: in the case of `O=C(O[C@@H]1Cc2c(O)cc(O)cc2O[C@@H]1c1cc(O)c(O)c(O)c1)c1cc(O)c(O)c(O)c1` [(-)-Epigallocatechin gallate] it was 4.13%; in that of `Cc1ccc(C)c(OCCCC(C)(C)C(=O)O)c1` [Gemfibrozil (Lopid)], 2.6%. For `Nc1ccn([C@@H]2O[C@H](CO)[C@@H](O)C2(F)F)c(=O)n1` [Gemcitabine HCl (Gemzar)], in test [3], the inhibition at 10 µM is -9.76%.
